Laboratory results as given in patent US20220380310A1, “P2X7R ANTAGONISTS” (priority 2019, published 2022).

What was measured:
[1] = biological target: T1, P2X7R (Homo sapiens, UniProt Q99572); test: Yo-Pro-1 uptake assay (Yo-Pro-1 Assay) in HEK-293 cells transiently transfected with P2X7R; format: cell-based; details: for remaining activity at 5 µM: HEK293, compound at 5 μM, 30 μM bzATP stimulus, reading 1 hour after stimulation, transfected HEK-293 cells, read-out: Percentage of activity remains in the presence of the compound at 5 μM, P2X7R (Yo-Pro-1 Assay); for IC50: HEK-293 cells transiently transfected with P2X7R, 30 μM bzATP as stimulus, readings 1 hour after stimulation, estimated from dose-response curves
T1 construct: expressed in transfected cells; host or cells: HEK-293
T1 sequence (Q99572 1-595): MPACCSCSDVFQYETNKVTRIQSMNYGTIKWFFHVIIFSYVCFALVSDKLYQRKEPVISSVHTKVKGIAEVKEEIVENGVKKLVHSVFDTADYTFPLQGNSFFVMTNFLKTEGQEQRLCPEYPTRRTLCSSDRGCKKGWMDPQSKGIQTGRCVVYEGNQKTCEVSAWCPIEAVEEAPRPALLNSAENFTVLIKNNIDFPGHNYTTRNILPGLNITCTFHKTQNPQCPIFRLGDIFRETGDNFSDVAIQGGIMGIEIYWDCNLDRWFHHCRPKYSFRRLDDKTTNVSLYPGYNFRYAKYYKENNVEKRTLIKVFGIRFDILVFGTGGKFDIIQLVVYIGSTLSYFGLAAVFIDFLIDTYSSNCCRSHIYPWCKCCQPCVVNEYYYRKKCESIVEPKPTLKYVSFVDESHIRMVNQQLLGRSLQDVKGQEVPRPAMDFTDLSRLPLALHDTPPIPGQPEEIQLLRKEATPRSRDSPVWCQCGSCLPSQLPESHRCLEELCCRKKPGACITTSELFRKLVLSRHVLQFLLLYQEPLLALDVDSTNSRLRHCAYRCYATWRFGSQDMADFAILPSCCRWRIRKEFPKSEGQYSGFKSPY
Source text: (§1) Yo-Pro-1 Iodide (Cat. No Y3603 from Fisher Scientific) is a fluorescent DNA-binding dye with a MW of 629 Da. This method is based upon the Yo-Pro-1 entrance to cells through the dilated or “large pore form” of P2X7R and its binding to intracellular DNA whereby it increases its fluorescence intensity (J. Pharmacol. Exp. Ther. 308, 1053-1061). The dye has an absorption spectrum compatible with excitation at 488 nm by argon laser sources and its emission wavelength is in the range of 515-575 nm. This Yo-Pro-1 uptake was measured in HEK-293 cells transiently transfected with P2X7R (J. Biol. Chem. 290, 7930-7942). In Brief, HEK-293 cells were seeded in growth medium at approximately 20,000 cells/well in a 96-well plate on day 1. Transfection was performed on day 2 using Lipofectamine 2000 with the P2X7R DNA plasmid at the concentration of 1.7 μg/ml. The transfection solution was replaced with the growth medium 4 hours later. Fluorescent assays were conducted on day 4. On day 4, the medium was removed, the cells were washed with phosphate buffered saline (PBS) (Cat. No. MT21040CV from Fisher Scientific). Then, 25 μl of PBS were first loaded to each well followed by 25 μl of various test compounds. The third 25 μl of solution contained a mixture of Yo-Pro-1 and stimulus bzATP (2′(3′)-O-(4-Benzoylbenzoyl)adenosine-5′-triphosphate tri(triethylammonium) salt). The final concentration of Yo-Pro-1 was 2.5 μM and of bzATP 30 μM. Fluorescence increases were measured every 30 minutes in a microplate device with excitation at 475 nm and emission wavelength in the range of 500-550 nm. PPADS (Pyridoxalphosphate-6-azophenyl-2′,4′-disulfonic acid tetrasodium) was used as the positive control. The wells with no test compounds added nor bzATP and only containing PBS and Yo-Pro-1 were served as the negative control (N Contl). The positive control (P Contl) wells were the same as N Contl but contained the stimulus, bzATP in this case.
(§2) Data used for analysis were from microplate readings 1 hour after bzATP stimulation. The result of each well was first normalized by its corresponding base microplate reading. The base microplate reading was the first reading right after all components were added. Then, the negative control signal was subtracted from. In the negative control, the test compound and the stimulus were replaced by PBS. An average of six highest values of the plate (AVG) were considered as 100% and the value of each well was divided by AVG and presented as the relative values in percentages.
For comparison of the antagonistic effectiveness of the compounds of this invention among P2X receptors, assays were conducted at 5 μM. Among 55 compounds tested, 29 can reduce the P2X7R activity to […] of the normal activity (Table 2).

[2] = biological target: T2, Human P2X2 receptor (P2X2R) (Homo sapiens, UniProt Q9UBL9); test: Yo-Pro-1 uptake assay, P2X2R transfected HEK-293 cells; format: cell-based; details: HEK293, compound at 5 μM, 5 μM ATP stimulus, read-out: Percentage of activity remains in the presence of the compound at 5 μM, P2X2R (Yo-Pro-1 Assay)
T2 construct: expressed in transfected cells; host or cells: HEK-293
T2 sequence (Q9UBL9 1-471): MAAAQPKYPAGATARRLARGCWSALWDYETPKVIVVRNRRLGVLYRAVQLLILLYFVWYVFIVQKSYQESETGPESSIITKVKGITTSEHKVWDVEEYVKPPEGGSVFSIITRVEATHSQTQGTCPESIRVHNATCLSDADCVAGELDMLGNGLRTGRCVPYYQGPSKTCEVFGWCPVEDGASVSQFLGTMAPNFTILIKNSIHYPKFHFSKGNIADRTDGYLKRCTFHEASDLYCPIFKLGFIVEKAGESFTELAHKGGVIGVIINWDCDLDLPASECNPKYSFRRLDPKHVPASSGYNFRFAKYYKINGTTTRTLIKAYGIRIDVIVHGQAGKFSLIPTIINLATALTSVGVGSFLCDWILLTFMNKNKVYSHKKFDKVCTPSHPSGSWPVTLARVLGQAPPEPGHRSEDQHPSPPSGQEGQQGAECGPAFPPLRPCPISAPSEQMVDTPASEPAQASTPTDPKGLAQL
Source text: as §1, §2
Human P2X2 receptor (P2X2R) construct (J. Biol. Chem. 290, 7930-7942) was transiently transfected to HEK-293 cells and the Yo-Pro-1 assay was performed as described above. When 5 μM ATP was used as the stimulus, the elevation of receptor mediated activity can be seen in 10 minutes.

remaining activity at 5 µM [1] [%]	IC50 [1] [µM]	remaining activity at 5 µM [2] [%]	SMILES
13.5	3.2	57	O=C(CCc1ccccc1)NC1CCCN(S(=O)(=O)c2ccc(F)cc2)C1 (stereo not drawn) [#3]
59	9.3	55.4	CCCCNc1ccc(S(=O)(=O)N2CCC(C(=O)O)CC2)cc1 [#27]
44.3	6.7	41.8	O=C(CCc1ccccc1)NC1CCCN(S(=O)(=O)c2ccc(N3CCOCC3)cc2)C1 (stereo not drawn) [#12]
33.1	9.3	83.3	O=C(CCc1ccccc1)NC1CCCN(S(=O)(=O)c2ccc(N3CCCCC3)c(Cl)c2)C1 (stereo not drawn) [#45]
70.1	5.9	38.2	O=S(=O)(c1ccccc1)C1CN(S(=O)(=O)c2ccc(N3CCCCC3)cc2)C1 [#10]
36.8	5.1	79.3	O=C(NCCc1ccccc1)C1CCCN(S(=O)(=O)c2ccc(N3CCCC3)cc2)C1 (stereo not drawn) [#25]
-14.5	2.1	63.8	O=C(CCc1ccccc1)NC1CCCN(S(=O)(=O)Cc2ccc(Br)cc2)C1 (stereo not drawn) [#8]
-1.1	0.6	59.7	O=C(CCc1ccccc1)NC1CCCN(c2ccc(S(=O)(=O)Nc3ccccc3)cc2)C1 (stereo not drawn) [#50]
12.9	3	64	CC(C)(C)OC(=O)N1CCN(c2ccc(S(=O)(=O)N3CCN(C(=O)CCc4ccccc4)CC3)cc2)CC1 [#31]
14.1	6	77.6	CC(C)S(=O)(=O)c1ccc(N2CCCC(NC(=O)CCc3ccccc3)C2)cc1 (stereo not drawn) [#7]
35.8	26.6	77.1	O=C(NCCc1ccccc1)C1CCN(S(=O)(=O)c2ccc(N3CCOCC3)cc2)CC1 [#23]
23.5	3	71.1	O=C(CCc1ccccc1)NC1CCCN(S(=O)(=O)c2ccc(F)c(Cl)c2)C1 (stereo not drawn) [#43]
-9.3	1.5	81.7	O=C(CCc1ccccc1)NC1CCCN(c2ccc(S(=O)(=O)N3CCCCC3)cc2)C1 (stereo not drawn) [#54]
32.6	10.2	70.9	O=C(NCCc1ccccc1)C1CCCN(S(=O)(=O)c2ccc(N3CCOCC3)cc2)C1 (stereo not drawn) [#24]
-7.3	0.2	55.5	O=C(CCc1ccccc1)NC1CCCN(S(=O)(=O)c2ccc(N3CCCCC3)cc2)C1 (stereo not drawn) [#5]
7.5	0.9	57.6	O=C(CCc1ccccc1)NC1CCCN(S(=O)(=O)c2ccc(N3CCC(Oc4ccccc4)CC3)cc2)C1 (stereo not drawn) [#38]
47.3	11.5	61.8	CC(C)(C)OC(=O)N1CCN(c2ccc(S(=O)(=O)N3CCCC(C(=O)NCCc4ccccc4)C3)cc2)CC1 (stereo not drawn) [#36]
54.3	3.8	79.9	O=C(CCc1ccccc1)N1CCN(S(=O)(=O)c2ccc(N3CCOCC3)cc2)CC1 [#32]
10.7	2.7	54.3	CC(C)COc1ccc(S(=O)(=O)N2CCCC(NC(=O)CCc3ccccc3)C2)cc1 (stereo not drawn) [#6]
-7.4	0.1	69.7	CC1CCCCN1c1ccc(S(=O)(=O)N2CCCC(NC(=O)CCc3ccccc3)C2)cc1 (stereo not drawn) [#47]
53.4	16.1	91.6	COCCOc1ccc(S(=O)(=O)N2CCCC(NC(=O)CCc3ccccc3)C2)cc1 (stereo not drawn) [#17]
38.4	8.2	64.9	O=C(CCc1ccccc1)NC1CCCN(S(=O)(=O)c2ccc(OCc3ccccc3)cc2)C1 (stereo not drawn) [#4]
